In assay [1] the test system is human erytroblast leukemia HEL-92.1.7 cells. Briefly: Growth inhibition test (MTS) on HEL-92.1.7 cells. Format: cell-based. The following applies: 72 hours, read-out: HEL92 ED50. The essentials: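 HEL-92.1.7 cells in RPMI 1640 with 10% FCS, exposed next day to compound at 0.1–10 micromol/L for 72 h at 37° C. Viability by MTS absorbance at 490 nm after 2 h, as % of untreated cells.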

Assay [2] concerns human breast adenocarcinoma MCF7 cells. In words: Growth inhibition test (MTS) on MCF7 cells. Format: cell-based. The following applies: Homo sapiens, MCF7, 72 hours, read-out: MCF-7 ED50. The essentials:
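MCF7 cells seeded in DMEM with 10% FCS, dosed next day at 0.1–10 micromol/L (diluted from 10 mmol/L DMSO stock) and cultured 72 h at 37° C, 5% CO2. MTS added for 2 h, absorbance read at 490 nm; % viability calculated relative to untreated cells as 100%.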

In assay [3] the test system is human hepatoma HepG2 cells. Briefly: Growth inhibition test (MTS) on HepG2 cells. The conditions noted are these: 72 hours, read-out: HepG2 ED50. Format: cell-based. The essentials: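 HepG2 cells in DMEM with 10% FCS were exposed for 72 h at 37 °C, 5% CO2, to 0.1, 0.5, 1, 2.5, 5 and 10 micromol/L compound. MTS was then added for 2 h and absorbance read at 490 nm. % viability was calculated relative to untreated cells set at 100%.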

For assay [4], the system named is tumors derived from MV4-11 cells xenografted in nude mice. Briefly: In vivo anticancer activity, MV4-11 xenograft. The conditions noted are these: QD, PO. The method, then:
The anticancer activity of compounds 20, 359 and 416 was assessed on tumors derived from MV4-11 cells xenografted in nude mice. Mice were inoculated with 5*10^6 cells and the tumor volume was measured until it reached 100 mm^3. Throughout the whole study tumor volume has been measured (FIG. 2) and tumor growth inhibition (TGI) was calculated.

In a further assay the target is DYRK2(h) (Homo sapiens (Human), UniProt Q92630). Briefly: KinaseProfiler kinase panel. Format: biochemical.
Chain of DYRK2(h) (Q92630 whole entry): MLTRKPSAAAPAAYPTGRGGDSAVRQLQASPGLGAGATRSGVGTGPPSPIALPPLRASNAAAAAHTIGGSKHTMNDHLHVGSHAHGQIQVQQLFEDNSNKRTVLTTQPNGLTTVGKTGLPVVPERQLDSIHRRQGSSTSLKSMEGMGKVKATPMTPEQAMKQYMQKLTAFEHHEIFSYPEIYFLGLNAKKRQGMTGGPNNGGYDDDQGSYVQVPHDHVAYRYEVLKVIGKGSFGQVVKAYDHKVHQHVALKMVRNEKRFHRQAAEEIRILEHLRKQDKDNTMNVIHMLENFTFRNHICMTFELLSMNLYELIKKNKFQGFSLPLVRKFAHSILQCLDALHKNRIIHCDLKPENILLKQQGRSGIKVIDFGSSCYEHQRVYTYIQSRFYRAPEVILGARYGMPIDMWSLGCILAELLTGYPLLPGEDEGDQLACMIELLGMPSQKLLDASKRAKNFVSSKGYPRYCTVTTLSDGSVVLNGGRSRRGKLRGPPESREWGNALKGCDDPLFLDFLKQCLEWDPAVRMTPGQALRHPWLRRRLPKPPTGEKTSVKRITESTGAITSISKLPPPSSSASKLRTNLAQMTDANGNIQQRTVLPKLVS
The next assay concerns the target Met(Y1248H)(h) (Homo sapiens (Human), UniProt P08581, Y1248H). In words: KinaseProfiler kinase panel. Format: biochemical.
In a further assay the target is eEF-2K(h) (Homo sapiens (Human), UniProt O00418). In words: KinaseProfiler kinase panel. The class given is biochemical.

The term remaining activity denotes the signal under treatment as a percentage of the control signal.

Chain of Met(Y1248H)(h) (P08581 other isoform, or with tags, fused parts or gaps Y1248H): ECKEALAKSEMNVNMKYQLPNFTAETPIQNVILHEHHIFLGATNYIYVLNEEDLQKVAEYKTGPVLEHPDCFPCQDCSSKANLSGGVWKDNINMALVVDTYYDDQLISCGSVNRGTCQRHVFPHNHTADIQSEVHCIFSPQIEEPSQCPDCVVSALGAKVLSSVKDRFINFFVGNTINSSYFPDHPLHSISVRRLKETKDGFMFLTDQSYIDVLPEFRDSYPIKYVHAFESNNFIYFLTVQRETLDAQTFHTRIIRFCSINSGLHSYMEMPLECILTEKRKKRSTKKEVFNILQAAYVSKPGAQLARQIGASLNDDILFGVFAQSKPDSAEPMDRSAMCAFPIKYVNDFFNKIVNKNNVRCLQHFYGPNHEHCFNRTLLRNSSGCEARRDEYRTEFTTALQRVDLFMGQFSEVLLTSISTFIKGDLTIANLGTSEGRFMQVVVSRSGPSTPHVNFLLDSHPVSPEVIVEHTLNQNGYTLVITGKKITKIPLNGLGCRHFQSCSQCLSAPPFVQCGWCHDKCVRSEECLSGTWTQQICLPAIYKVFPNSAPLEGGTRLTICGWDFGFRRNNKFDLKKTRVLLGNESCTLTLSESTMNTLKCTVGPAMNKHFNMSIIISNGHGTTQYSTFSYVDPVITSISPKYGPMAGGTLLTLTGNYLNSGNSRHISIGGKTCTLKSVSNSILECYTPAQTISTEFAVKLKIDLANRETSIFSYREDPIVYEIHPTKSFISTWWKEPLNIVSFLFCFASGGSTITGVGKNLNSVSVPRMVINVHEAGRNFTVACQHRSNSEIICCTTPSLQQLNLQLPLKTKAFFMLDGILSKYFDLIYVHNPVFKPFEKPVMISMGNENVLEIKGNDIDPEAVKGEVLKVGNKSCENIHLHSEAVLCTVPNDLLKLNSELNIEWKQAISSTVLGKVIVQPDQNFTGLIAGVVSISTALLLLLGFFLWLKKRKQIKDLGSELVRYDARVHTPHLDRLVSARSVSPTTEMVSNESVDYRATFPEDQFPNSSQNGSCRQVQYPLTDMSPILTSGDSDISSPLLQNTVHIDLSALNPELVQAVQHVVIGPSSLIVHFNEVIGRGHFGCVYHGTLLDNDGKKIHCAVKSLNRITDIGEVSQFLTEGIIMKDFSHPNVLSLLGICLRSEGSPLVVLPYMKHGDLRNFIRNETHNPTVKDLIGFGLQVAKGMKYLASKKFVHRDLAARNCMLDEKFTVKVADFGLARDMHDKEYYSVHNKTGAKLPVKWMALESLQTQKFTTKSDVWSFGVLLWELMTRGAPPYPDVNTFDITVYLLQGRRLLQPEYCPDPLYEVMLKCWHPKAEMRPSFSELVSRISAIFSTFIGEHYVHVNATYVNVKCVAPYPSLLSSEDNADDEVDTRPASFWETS

Consider `CCn1c(N2CCNCC2)nc2c(Br)c(Br)c(Br)c(Br)c21` [Compound 416, 4,5,6,7-tetrabromo-1-ethyl-2-(piperazin-1-yl)-1H-benzo[d]imidazole], for which the IC50 in assay [1] came out at 2720 nM; in assay [2] it was 1260 nM; in assay [3], 1310 nM. The “TGI (%)” value in assay [4] (150 mg/kg, 21 days, MV4-11 xenograft in nude mice) is listed as −102.8%. In addition, the “tumor growth inhibition (in words)” value in assay [4] (after 21 days of treatment) is “most pronounced tumor growth inhibition”. Besides, the results for the remaining activity at 1 µM on DYRK2(h), at Met(Y1248H)(h) and at eEF-2K(h) were 45%, 70% and 107%, respectively.

The record behind these values is US8604217B2, “Compound, a process for its preparation, a pharmaceutical composition, use of a compound, a method for modulating or regulating serine/threonine kinases and a serine/threonine kinases modulating agent” (Selvita S.A., priority 2009, dated 2013).
